These results are taken from ChEMBL document CHEMBL1201862, “PubChem BioAssay data set” (2004).

SMILES strings stand for the structures.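 Each compound was tested at five concentrations against cells in 96-well plates for 48 hours. Here, GI50 denotes the concentration required for 50% inhibition of growth.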 Calls of active or inactive are those of the source. Rule as the data show it: active = GI50 up to about 1.1 µM and inactive = higher. A value given as a limit tells only on which side of the number the result lay.

Common to all, as to experiment: growth of human tumour cells (NCI), 48 h
The test system of test [1] is ACHN.
The subject of test [2] is BT-549.
Test [3] deals with DU-145.
Test [4] concerns HCC 2998.
Test [5] deals with HCT-116.
Test [6] relates to HL-60.
For test [7], the system named is HOP-62.
Test [8] relates to Hs-578T.
Test [9] concerns MDA-N.
The subject of test [10] is MOLT-4.
Test [11] concerns OVCAR-3.
For test [12], the system named is OVCAR-4.
Test [13] deals with SF-268.
Test [14] relates to SF-539.
Test [15] relates to SK-MEL-5.
Test [16] relates to SR.
The test system of test [17] is SW-620.
Test [18] concerns T47D.
Test [19] relates to TK-10.
Test [20] relates to UACC-62.

For the molecule `c1ccc2sc(C3(N4CCC5(CC4)OCCO5)CCCCC3)cc2c1`, the GI50 was > 100 µM (inactive) in test [1]; > 100 µM (inactive) in test [2]; > 100 µM (inactive) in test [3]; 27.7 µM (inactive) in [4]; 58.1 µM (inactive) in [5]; 12.2 µM (inactive) in test [6]. Besides, the GI50 in [7] was > 100 µM (inactive); in test [8], > 100 µM (inactive); in test [9], 80.4 µM (inactive); in [10] it was 29.2 µM (inactive); in test [11] it was > 100 µM (inactive); in test [12], > 100 µM (inactive). The GI50 in test [13] is > 100 µM (inactive); in test [14] it was > 100 µM (inactive); in test [15], 50.5 µM (inactive); in [16], 7.89 µM (inactive); in test [17], > 100 µM (inactive); in test [18], > 100 µM (inactive). Besides, the values for the GI50 in test [19] and in test [20] were 90.6 µM (inactive) and > 100 µM (inactive), respectively.

Turning to `C[C@H]1O[C@@H](O[C@H]2[C@@H](O)C[C@H](O[C@H]3[C@@H](O)C[C@H](O[C@H]4CC[C@@]5(C)[C@H](CC[C@@H]6[C@@H]5CC[C@]5(C)[C@@H](C7=CC(=O)OC7)[C@@H](O)C[C@]65O)C4)O[C@@H]3C)O[C@@H]2C)C[C@H](O)[C@@H]1O` [GITOXIN], the GI50 in [1] was 0.0948 µM (active); in [2] it was 0.116 µM (active); in [3] it was 0.0822 µM (active); in test [4], 4.19 µM (inactive); in [5] it was 0.127 µM (active); in [6], 0.116 µM (active). Further, the GI50 in test [7] is 0.566 µM (active); in test [8], 0.562 µM (active); in [9], 0.266 µM (active); in test [10] it was 0.0277 µM (active); in [11], 0.13 µM (active); in [12], 0.271 µM (active). Further, the GI50 is 0.152 µM (active) in test [13]; 0.1 µM (active) in test [14]; 0.118 µM (active) in test [15]; 0.287 µM (active) in test [16]; 0.258 µM (active) in test [17]; 0.42 µM (active) in test [18]. In addition, the GI50 is 0.254 µM (active) in [19] and 0.418 µM (active) in [20].
